Data as given in ChEMBL document CHEMBL1697781, “Assessment of the health effects of chemicals in humans: II. Construction of an adverse effects database for QSAR modeling” (Curr Drug Discov Technol, 2004).

Legend:
Conditions in all cases: human; call rule not given here
[1] = system: Hepatotoxicity; test: FDA HLAED, liver enzyme composite activity
[2] = system: Hepatotoxicity; test: FDA HLAED, serum glutamic pyruvic transaminase (SGPT) increase
[3] = system: Hepatotoxicity; test: FDA HLAED, gamma-glutamyl transferase (GGT) increase
[4] = system: Hepatotoxicity; test: FDA HLAED, alkaline phosphatase increase
[5] = system: Hepatotoxicity; test: FDA HLAED, serum glutamic oxaloacetic transaminase (SGOT) increase
[6] = system: Hepatotoxicity; test: FDA HLAED, lactate dehydrogenase (LDH) increase
Wherever GGT Increase - Index Value is given: reference of the scale not given here.
Wherever LDH Increase - Index Value is given: reference of the scale not given here.

SMILES	Composite Activity - Active ([1]; Liver)	Composite Activity - Marginal ([1]; Liver)	SGPT Increase - Activity Score [2]	SGPT Increase - Index Value [2]	SGPT Increase - Number of Reports [2]	GGT Increase - Activity Score [3]	GGT Increase - Index Value [3]	GGT Increase - Number of Reports [3]	Alkaline Phosphatase Increase - Activity Score [4]	Alkaline Phosphatase Increase - Index Value [4]	Alkaline Phosphatase Increase - Number of Reports [4]	SGOT Increase - Activity Score [5]	SGOT Increase - Index Value [5]	SGOT Increase - Number of Reports [5]	LDH Increase - Activity Score [6]	LDH Increase - Index Value [6]	LDH Increase - Number of Reports [6]	Composite Activity - Active [1]	Composite Activity - Marginal [1]	Composite Activity - Score [1]	also measured
c1ccc([C@H]2CN3CCSC3=N2)cc1 [LEVAMISOLE]	3	0	Inactive	8.8	< 4	Inactive	5.9	< 4	Active	38.3	>= 4	Active	26.5	>= 4	Active	29.4	>= 4				Composite Activity - Score ([1]; Liver): Active
CC(C)(C)NC[C@H](O)COc1cccc2c1CCCC2=O [LEVOBUNOLOL]			Inactive	0	< 4	Inactive	0	< 4	Inactive	0	< 4	Inactive	0	< 4	Inactive	0	< 4	0	0	Inactive	
C[C@@H]1CN([C@H]2CC[C@](C#N)(c3ccc(F)cc3)CC2)CC[C@]1(C(=O)O)c1ccccc1 [LEVOCABASTINE]			Inactive	0	< 4	Inactive	0	< 4	Inactive	0	< 4	Inactive	0	< 4	Inactive	0	< 4	0	0	Inactive	
C[N+](C)(C)C[C@H](O)CC(=O)[O-] [LEVOCARNITINE]			Inactive	0	< 4	Inactive	0	< 4	Inactive	0	< 4	Inactive	0	< 4	Inactive	0	< 4	0	0	Inactive	
C[C@H]1COc2c(N3CCN(C)CC3)c(F)cc3c(=O)c(C(=O)O)cn1c23.C[C@H]1COc2c(N3CCN(C)CC3)c(F)cc3c(=O)c(C(=O)O)cn1c23.O [LEVOFLOXACIN]			Inactive	0	< 4	Inactive	0	< 4	Inactive	0	< 4	Inactive	0	< 4	Inactive	0	< 4	0	0	Inactive	
C#C[C@]1(O)CC[C@H]2[C@@H]3CCC4=CC(=O)CC[C@@H]4[C@H]3CC[C@@]21CC [LEVONORGESTREL]	5	0	Active	22.7	>= 4	Active	34	>= 4	Active	34	>= 4	Active	39.7	>= 4	Active	28.3	>= 4				Composite Activity - Score ([1]; Liver): Active
NCCCC[C@H](N[C@@H](CCc1ccccc1)C(=O)O)C(=O)N1CCC[C@H]1C(=O)O [LISINOPRIL ANHYDROUS]			Inactive	1.4	>= 4	Inactive	1	>= 4	Inactive	2	>= 4	Inactive	1.5	>= 4	Inactive	1.2	>= 4	0	0	Inactive	
N#Cc1cc(NC(=O)C(=O)O)c(Cl)c(NC(=O)C(=O)O)c1 [LODOXAMIDE]			Inactive	0	< 4	Inactive	0	< 4	Inactive	0	< 4	Inactive	0	< 4	Inactive	0	< 4	0	0	Inactive	
N[C@@H](C(=O)N[C@@H]1C(=O)N2C(C(=O)O)=C(Cl)CC[C@H]12)c1ccccc1 [LORACARBEF ANHYDROUS]			Inactive	0.2	< 4	Inactive	0.1	< 4	Inactive	0.2	< 4	Inactive	0.2	< 4	Inactive	0	< 4	0	0	Inactive	
CCOC(=O)N1CCC(=C2c3ccc(Cl)cc3CCc3cccnc32)CC1 [LORATADINE]	0	0	Inactive	0.6	>= 4	Inactive	0.5	>= 4	Inactive	0.7	>= 4	Inactive	0.9	>= 4	Inactive	0.2	< 4				Composite Activity - Score ([1]; Liver): Inactive
CCCCc1nc(Cl)c(CO)n1Cc1ccc(-c2ccccc2-c2nn[nH]n2)cc1 [LOSARTAN]			Inactive	1	>= 4	Inactive	0.6	< 4	Inactive	0.4	< 4	Inactive	0.8	>= 4	Inactive	0.4	< 4	0	0	Inactive	
CNCCCC12CCC(c3ccccc31)c1ccccc12 [MAPROTILINE]	0	0	Inactive	0.3	< 4	Inactive	0	< 4	Inactive	0.5	< 4	Inactive	0.3	< 4	Inactive	0	< 4				Composite Activity - Score ([1]; Liver): Inactive
